# Assay results from patent US12691107B2, “Methods for the treatment and prevention of lung infections caused by gram-positive bacteria, fungus, or virus by administration of tafenoquine” (priority 2020, dated 2026).
# Like-named read-outs stand apart in the source and are kept apart here.
# Experiments:
# Enterococcus faecium = experiment: Antibacterial MIC (broth microdilution); format: cell-based; conditions: isolate 1593
# Enterococcus faecalis = experiment: Antibacterial MIC (broth microdilution); format: cell-based
# A. baumannii = experiment: Antibacterial MIC (broth microdilution); format: cell-based; conditions: Acinetobacter baumannii
# Fusarium sp. = experiment: Antifungal MIC (RPMI-1640 microdilution); format: cell-based
# Candida glabrata = experiment: Antifungal MIC (RPMI-1640 microdilution); format: cell-based
# Curvularia sp. = experiment: Antifungal MIC (RPMI-1640 microdilution); format: cell-based
# Staphylococcus aureus = experiment: Antibacterial MIC (broth microdilution); format: cell-based
# Saksenaea sp. = experiment: Antifungal MIC (RPMI-1640 microdilution); format: cell-based
# Emergomyces sp. = experiment: Antifungal MIC (RPMI-1640 microdilution); format: cell-based
# Rhizopus arrhizus = experiment: Antifungal MIC (RPMI-1640 microdilution); format: cell-based
# Aspergillus flavus = experiment: Antifungal MIC (RPMI-1640 microdilution); format: cell-based
# Blastomyces dermatitidis = experiment: Antifungal MIC (RPMI-1640 microdilution); format: cell-based
# Aspergillus fumigatus = experiment: Antifungal MIC (RPMI-1640 microdilution); format: cell-based
# Coccidioides sp. = experiment: microbe, parasite or virus in culture; format: cell-based
# Candida parapsilosis = experiment: Antifungal MIC (RPMI-1640 microdilution); format: cell-based; conditions: for MIC50 / MIC: Lodderomyces parapsilosis
# Exserohilum sp. = experiment: Antifungal MIC (RPMI-1640 microdilution); format: cell-based
# [1] = test system: Aspergillus fumigatus clinical isolate 293 (Af293); experiment: Prophylactic efficacy in Aspergillus-infected immunosuppressed mice; format: in vivo, ICR mice; conditions: 2.5 or 5.0 mg/kg/day oral from day -2 through day +7
# Pneumocystis = Pneumocystis pneumonia in rats, therapy or prophylaxis
# Vero E6 cells = conditions: African green monkey
# [2] = Plasma levels of tafenoquine in humans; conditions: human, in vivo
# HCMV strain AD169 = experiment: CPE assay for HCMV in HFF cells; format: cell-based; conditions: Human betaherpesvirus 5, AD169
# P. falciparum = conditions: seven strains, three repeat assays; cited from earlier work
# Plasmodium cynomolgi = conditions: for three days; cited from earlier work
# [3] = test system: M. tuberculosis [ATCC #27294]; experiment: MIC against M. tuberculosis in 7H9 media; format: cell-based; conditions: Mycobacterium tuberculosis
# [4] = rat, in vivo, 125 mg/kg; cited from earlier work
# [5] = read-out: MIC 100% inhibition, isolate AF293
smiles,measurement,setting,value
COc1cc(C)c2c(Oc3cccc(C(F)(F)F)c3)c(OC)cc(NC(C)CCCN)c2n1.O=C(O)CCC(=O)O (stereo not drawn) [Tafenoquine Succinate],MIC,Enterococcus faecium,8 µg/mL
same,MIC,"Enterococcus faecalis; ATCC29212, isolate ATCC 29212",8 µg/mL
same,MIC,Enterococcus faecalis; isolate 1768,8 µg/mL
same,MIC,"A. baumannii; ATCC17978, isolate ATCC 17978",64 µg/mL
same,MIC,A. baumannii; isolate AR-88,64 µg/mL
same,MIC,A. baumannii; isolate AR-273,> 64 µg/mL
same,MIC50,"Fusarium sp.; read-out: MIC 50% inhibition, isolate FO1",8 µg/mL
same,MIC50,"Fusarium sp.; read-out: MIC 50% inhibition, isolate FS2",16 µg/mL
same,MIC50,"Fusarium sp.; read-out: MIC 50% inhibition, isolate FSI",8 µg/mL
same,MIC,"Fusarium sp.; read-out: MIC 100% inhibition, isolate FO1",16 µg/mL
same,MIC,"Fusarium sp.; read-out: MIC 100% inhibition, isolate FS2",16 µg/mL
same,MIC,"Fusarium sp.; read-out: MIC 100% inhibition, isolate FSI",16 µg/mL
same,MIC50,"Candida glabrata; Nakaseomyces glabratus, read-out: MIC 50% inhibition, isolate 05-62",8 µg/mL
same,MIC50,"Candida glabrata; Nakaseomyces glabratus, read-out: MIC 50% inhibition, isolate 05-761",8 µg/mL
same,MIC50,"Candida glabrata; Nakaseomyces glabratus, read-out: MIC 50% inhibition, isolate CG3",8 µg/mL
same,MIC,"Candida glabrata; Nakaseomyces glabratus, read-out: MIC 100% inhibition, isolate 05-62",8 µg/mL
same,MIC 100% inhibition,Candida glabrata; isolate 05-761,8 µg/mL
same,MIC 100% inhibition,Candida glabrata; isolate CG3,8 µg/mL
same,MIC50,"Curvularia sp.; read-out: MIC 50% inhibition, isolate Curv1",2 µg/mL
same,MIC,"Curvularia sp.; read-out: MIC 100% inhibition, isolate Curv1",8 µg/mL
same,MIC,"Staphylococcus aureus; Staphylococcus aureus, ATCC29213, isolate ATCC 29213, read-out: MIC",8 µg/mL
same,MIC,"Staphylococcus aureus; Staphylococcus aureus, isolate 6215, read-out: MIC",8 µg/mL
same,MIC,Staphylococcus aureus; isolate 6229,8 µg/mL
same,MIC50,"Saksenaea sp.; read-out: MIC 50% inhibition, isolate Sak1",4 µg/mL
same,MIC50,"Saksenaea sp.; read-out: MIC 50% inhibition, isolate Sak2",2 µg/mL
same,MIC50,"Saksenaea sp.; read-out: MIC 50% inhibition, isolate Sak3",8 µg/mL
same,MIC,"Saksenaea sp.; read-out: MIC 100% inhibition, isolate Sak1",8 µg/mL
same,MIC,"Saksenaea sp.; read-out: MIC 100% inhibition, isolate Sak2",2 µg/mL
same,MIC,"Saksenaea sp.; read-out: MIC 100% inhibition, isolate Sak3",8 µg/mL
same,MIC 100% inhibition,Emergomyces sp.; isolate Emerg3,4 µg/mL
same,MIC50,"Emergomyces sp.; read-out: MIC 50% inhibition, isolate Emerg2",4 µg/mL
same,MIC50,"Emergomyces sp.; read-out: MIC 50% inhibition, isolate Emerg3",2 µg/mL
same,MIC,"Emergomyces sp.; read-out: MIC 100% inhibition, isolate Emerg2",4 µg/mL
same,MIC50,"Rhizopus arrhizus; read-out: MIC 50% inhibition, isolate 99-880",4 µg/mL
same,MIC50,"Rhizopus arrhizus; read-out: MIC 50% inhibition, isolate 99-892",4 µg/mL
same,MIC50,"Rhizopus arrhizus; read-out: MIC 50% inhibition, isolate RAI",8 µg/mL
same,MIC,"Rhizopus arrhizus; read-out: MIC 100% inhibition, isolate 99-880",4 µg/mL
same,MIC,"Rhizopus arrhizus; read-out: MIC 100% inhibition, isolate 99-892",4 µg/mL
same,MIC,"Rhizopus arrhizus; read-out: MIC 100% inhibition, isolate RAI",16 µg/mL
same,MIC50,"Aspergillus flavus; ATCC204304, read-out: MIC 50% inhibition, isolate ATCC 204304",4 µg/mL
same,MIC,"Aspergillus flavus; ATCC204304, read-out: MIC 100% inhibition, isolate ATCC 204304",4 µg/mL
same,MIC50,"Aspergillus flavus; read-out: MIC 50% inhibition, isolate Aflav2",8 µg/mL
same,MIC50,"Aspergillus flavus; read-out: MIC 50% inhibition, isolate Aflav3",4 µg/mL
same,MIC,"Aspergillus flavus; read-out: MIC 100% inhibition, isolate Aflav2",16 µg/mL
same,MIC,"Aspergillus flavus; read-out: MIC 100% inhibition, isolate Aflav3",8 µg/mL
same,MIC50,"Blastomyces dermatitidis; read-out: MIC 50% inhibition, isolate Blasto1",1 µg/mL
same,MIC50,"Blastomyces dermatitidis; read-out: MIC 50% inhibition, isolate Blasto2",4 µg/mL
same,MIC50,"Blastomyces dermatitidis; read-out: MIC 50% inhibition, isolate Blasto3",8 µg/mL
same,MIC,"Blastomyces dermatitidis; read-out: MIC 100% inhibition, isolate Blasto1",2 µg/mL
same,MIC,"Blastomyces dermatitidis; read-out: MIC 100% inhibition, isolate Blasto2",4 µg/mL
same,MIC,"Blastomyces dermatitidis; read-out: MIC 100% inhibition, isolate Blasto3",8 µg/mL
same,MIC50,"Aspergillus fumigatus; read-out: MIC 50% inhibition, isolate AF293",8 µg/mL
same,MIC50,"Aspergillus fumigatus; read-out: MIC 50% inhibition, isolate D115-106",4 µg/mL
same,MIC50,"Aspergillus fumigatus; read-out: MIC 50% inhibition, isolate D115-116",4 µg/mL
same,MIC,Aspergillus fumigatus; [5],16 µg/mL
same,MIC,"Aspergillus fumigatus; read-out: MIC 100% inhibition, isolate D115-106",8 µg/mL
same,MIC,"Aspergillus fumigatus; read-out: MIC 100% inhibition, isolate D115-116",4 µg/mL
same,MIC50,"Coccidioides sp.; read-out: MIC 50% inhibition, isolate Cocci1",4 µg/mL
same,MIC50,"Coccidioides sp.; read-out: MIC 50% inhibition, isolate Cocci2",16 µg/mL
same,MIC50,"Coccidioides sp.; read-out: MIC 50% inhibition, isolate D117-143",16 µg/mL
same,MIC,"Coccidioides sp.; read-out: MIC 100% inhibition, isolate Cocci1",8 µg/mL
same,MIC,"Coccidioides sp.; read-out: MIC 100% inhibition, isolate Cocci2",16 µg/mL
same,MIC,"Coccidioides sp.; read-out: MIC 100% inhibition, isolate D117-143",16 µg/mL
same,MIC50,"Candida parapsilosis; ATCC22019, read-out: MIC 50% inhibition, isolate ATCC 22019",4 µg/mL
same,MIC,"Candida parapsilosis; ATCC22019, read-out: MIC 100% inhibition, isolate ATCC 22019",4 µg/mL
same,MIC50,"Candida parapsilosis; read-out: MIC 50% inhibition, isolate CP1",4 µg/mL
same,MIC,"Candida parapsilosis; read-out: MIC 100% inhibition, isolate CP1",4 µg/mL
same,MIC,"Candida parapsilosis; read-out: MIC 100% inhibition, isolate CP2",4 µg/mL
same,MIC,"Candida parapsilosis; read-out: MIC 100% inhibition, isolate CP3",8 µg/mL
same,MIC 50% inhibition,Candida parapsilosis; isolate CP2,4 µg/mL
same,MIC 50% inhibition,Candida parapsilosis; isolate CP3,4 µg/mL
same,MIC50,"Exserohilum sp.; read-out: MIC 50% inhibition, isolate Exser1",4 µg/mL
same,MIC,"Exserohilum sp.; read-out: MIC 100% inhibition, isolate Exser1",8 µg/mL
"COc1cc(C)c2c(Oc3cccc(C(F)(F)F)c3)c(OC)cc(NC(C)CCCN)c2n1 (stereo not drawn) [Tafenoquine, N(4)-[2,6-Dimethoxy-4-methyl-5-[3-(trifluoromethyl)phenoxy]quinolin-8-yl]pentane-1,4-diamine]",pulmonary fungal burden,[1],"dose-related, albeit non-statistically significant trend towards reduced fungal burden"
same,survival versus vehicle control,[1]; followed until day 12,no statistical differences in survival
same,corresponding steady state plasma level,Pneumocystis; prophylaxis,~36 nanogram/ml
same,effective minimum inhibitory concentration in lungs,Pneumocystis; prophylaxis,23 micrograms/g
same,corresponding steady state plasma level,Pneumocystis; treatment,approximately 125 nanogram/ml
same,effective minimum inhibitory concentration in lungs,Pneumocystis; treatment,81 micrograms/g
same,CC50,Vero E6 cells,37.2 µM
same,ratio between steady state and single dose concentrations,[2],approximately 3.3
same,EC50,HCMV strain AD169,> 6 µM
same,fold more potent than primaquine (average 50% inhibitory concentrations),P. falciparum,7.1 fold
same,dose required to eliminate the replicating blood stage forms,Plasmodium cynomolgi,6 mg/kg/day
same,dose required to kill the quiescent hypnozoites,Plasmodium cynomolgi,0.6 mg/kg/day
same,MIC,"[3]; ATCC27294, 168 h, 7H9 with BSA, DPPC and cholesterol, 1 week, read-out: MIC",9.4 µg/mL
same,MIC,"[3]; ATCC27294, 168 h, 7H9 with casitone and DPPC, 1 week, read-out: MIC",4.7 µg/mL
same,MIC,"[3]; ATCC27294, 168 h, 7H9 with glucose and BSA, 1 week, read-out: MIC",12.5 µg/mL
same,MIC,"[3]; ATCC27294, 168 h, 7H9 with glucose and casitone, 1 week, read-out: MIC",4.7 µg/mL
same,MIC,"[3]; ATCC27294, 336 h, 7H9 with BSA, DPPC and cholesterol, 2 weeks, read-out: MIC",12.5 µg/mL
same,MIC,"[3]; ATCC27294, 336 h, 7H9 with casitone and DPPC, 2 weeks, read-out: MIC",6.25 µg/mL
same,MIC,"[3]; ATCC27294, 336 h, 7H9 with glucose and BSA, 2 weeks, read-out: MIC",19 µg/mL
same,MIC,"[3]; ATCC27294, 336 h, 7H9 with glucose and casitone, 2 weeks, read-out: MIC",6.25 µg/mL
same,MIC,"[3]; ATCC27294, range over Examples 19-22, read-out: MIC against replicating forms of tuberculosis in vitro",4.7 to 18 µg/mL
same,Maximum plasma concentration following a single 125 mpk dose in female rats,[4],2240 ng/mL
same,MIC,Aspergillus fumigatus; [5],16 µg/mL
